The test system of series [1] is PC3M cells. Briefly: BellBrook Labs tumor cell migration. Format: cell-based. The conditions noted are these: 3D collagen.
Series [2] deals with PC3M cells. Briefly: Secondary cytotoxicity/viability assays. It counts as cell-based. The conditions noted are these: ATP, caspase 3/7, PicoGreen.
The test system of series [3] is PNC prevalence in PC3M cells (GFP-PTB). Briefly: High-content assay for PNC reduction. Format: cell-based.
Series [4] relates to nucleolar volume in PC3M cells. Briefly: Nucleolar disassembly assay. Format: cell-based. The note with it: 24 hr, concentration-response.
For series [5] the following is noted: mouse, in vivo, ip, 5 mg/kg.
A short description of a further series: in vivo. The conditions noted are these: ip.
Series [6] in a line: Parallel artificial membrane permeability assay. Format: in vitro ADME. The note with it: pH 7.4.
The test system of series [7] is nucleolar architecture in PC3M cells. The experiment in a line: Immunofluorescence of nucleolar markers RP-194 and NOPP140. Format: cell-based. The note with it: 1 μM, 1 hour.

Turning to `O=C(Nc1cccnc1)c1cccs1` [CID 790407], the “Activity in the invasion assay” value in the series with PC3M cells [1] is on record as “active”. The “Activity in all other secondary cytotoxicity/viability assays” value in the series with PC3M cells [2] is “inactive”.

In the case of `N#Cc1c(-c2ccccc2)c(-c2ccccc2)n(Cc2ccccc2)c1N` [Compound 2a], the “PNC reduction activity (in words)” value in series [3] was “inactive”.

`CCO/C=N/c1c(C#N)c(-c2ccccc2)c(-c2ccccc2)n1Cc1ccccc1` [Compound 3a, Ethyl (E)-N-(1-benzyl-3-cyano-4,5-diphenyl-1H-pyrrol-2-yl)formimidate]: the “PNC reduction activity (in words)” value in series [3] is “inactive”.

Consider `N#Cc1c(-c2ccccc2)c(-c2ccccc2)n(Cc2ccccc2)c1/N=C/N[C@H]1CC[C@H](O)CC1` [Compound 4f, (E)-N'-(1-benzyl-3-cyano-4,5-diphenyl-1H-pyrrol-2-yl)-N-((trans)-4-hydroxycyclohexyl)formimidamide], for which the “PNC reduction activity (in words)” value in series [3] was “inactive”.

Consider `N=c1c2c(-c3ccccc3)c(-c3ccccc3)n(Cc3ccccc3)c2ncn1[C@H]1CC[C@H](O)CC1` [Compound 5f, trans-4-(7-Benzyl-4-imino-5,6-diphenyl-4,7-dihydro-3H-pyrrolo[2,3-d]pyrimidin-3-yl)cyclohexan-1-ol], for which, in series [4], the “effect on nucleolar volume” value was “able to reduce nucleolar volume”. The “C48h (μM)” value in series [5] was “BLQ^b”. Besides, the half-life is 4.64 h in “in vivo” (female, BALB/c, mouse, 5 mg/kg); 5.52 h in “in vivo” (female, BALB/c, mouse, 25 mg/kg); 16.4 h in “in vivo” (male, C57BL/6, mouse, 50 mg/kg). Moreover, the concentration at 48 h in “in vivo” (female, BALB/c, mouse, 25 mg/kg, C48h (μM)) came out at 0.011 µM.

Turning to `Cc1c(C)n(Cc2ccccc2)c2ncn([C@H]3CC[C@H](O)CC3)c(=N)c12` [Compound 5nnn, (trans)-4-(7-Benzyl-4-imino-5,6-dimethyl-4,7-dihydro-3H-pyrrolo[2,3-d]pyrimidin-3-yl)cyclohexan-1-ol], the “PAMPA permeability (in words)” value in series [6] was “negligible”.

Consider `N=c1c2c(-c3ccccc3)cn(Cc3ccccc3)c2ncn1C1CCOCC1` [Compound 11b, 7-Benzyl-5-phenyl-3-(tetrahydro-2H-pyran-4-yl)-3,7-dihydro-4H-pyrrolo[2,3-d]pyrimidin-4-imine], for which the “effect on nucleolar volume” value in series [4] was “did not influence nucleolar integrity and morphology”. For the same compound, the “distribution of RP-194 and NOPP140 in the nucleolus” value in series [7] was “diffuse distribution”.

As to `OCCCNc1ncnc2c1c(-c1ccccc1)c(-c1ccccc1)n2Cc1ccccc1` [Compound 13a, 3-((7-Benzyl-5,6-diphenyl-7H-pyrrolo[2,3-d]pyrimidin-4-yl)amino)propan-1-ol], in series [3], the “PNC reduction activity (in words)” value is “uniformly inactive”.

On to `O[C@H]1CC[C@H](Nc2ncnc3c2c(-c2ccccc2)c(-c2ccccc2)n3Cc2ccccc2)CC1` [Compound 13b, trans-4-((7-Benzyl-5,6-diphenyl-7H-pyrrolo[2,3-d]pyrimidin-4-yl)amino)cyclohexan-1-ol], for which the “PNC reduction activity (in words)” value in series [3] was “uniformly inactive”.

Source of the values: PMC10024865 (Journal of medicinal chemistry, 2022).
